# Measured values taken from patent US7537906B2, “Apoptosis inducer and method of screening for a substance inhibiting acylated homoserine lactone” (priority 2003, dated 2009).
# How the values were obtained:
# TNF-α = conditions: mouse macrophage culture system; cited from earlier work
# CaCo-2 cells = assay: Chromatin condensation and determination of apoptosis by Hoechst33342 staining; type: cell-based, human; conditions: 12 hours of culture
# Protocol: 2×10^4 CaCo-2 cells were inoculated on an 8-well culture slide (Collagen I Cellware BioCoat, Becton Dickinson), washed twice with PBS (-), and then cultured in a serum-free DMEM medium containing 1% NEAA for 24 hours. 3-oxododecanoyl homoserine lactone was added at each concentration (1 to 100 μM). After 12 hours of culture, the cells were fixed by 4% paraformaldehyde-3% sucrose/PBS, chromatin staining was carried out using Hoechst 33342 fluorescent dye, and then the cells were observed under a fluorescence microscope. With a magnification of ×400, 5 visual fields were selected at random. Apoptotic cells and normal cells were counted and the proportion of apoptotic cells was calculated. These steps were denoted as n=1, and conducted 3 times or more.
# IL-8 = conditions: human alveolar cells; cited from earlier work
# p38 = assay: MAP kinase activity by Western blot in CaCo-2 cells: phosphorylated p38; type: cell-based, human
# Protocol: A CaCo-2 carcinoma cell line of human colon cancer was purchased from American Type Culture Collection (ATCC), and cultured at 37° C. in the presence of 5% CO2 using a DMEM medium containing 10% FCS, 1% NEAA and 1% P/S (100 units/ml penicillin and 100 μg/ml streptomycin).
# 6×10^5 CaCo-2 cells were inoculated per dish using 6 cm dishes (NUNC), washed twice with phosphate buffered saline (PBS) (-), and then cultured in a serum-free DMEM medium containing 1% NEAA for 24 hours. Subsequently, at a final concentration of 100 μM, homoserine lactone hydrochloride and N-(3-oxododecanoyl)-L-homoserine lactone were each added, and then each solution was allowed to react for 10 minutes. Furthermore, purified acylated homoserine lactone used herein had been dissolved in DMSO in a concentration 400 times higher than the target final concentration, and then subjected to filter sterilization (φ 0.22 μm). As a control, DMSO with a final concentration of 0.25% was used. In addition, α-tubulin was used as an internal standard.
# After reaction, the product was washed twice with cold PBS (-), and then frozen at −80° C. The cells were thawed on ice. 200 μl of a lysis buffer (50 mM HEPES, pH 7.5, 50 mM NaCl, 1 mM EDTA, 1.5 mM MgCl2, 1% Triton X-100, 10% glycerin, 10 mM sodium pyrophosphate, 1 mM Na3VO4, 100 mM NaF, 1 mM PMSF, 10 μg/ml aprotinin and 10 μg/ml leupeptin) was added to the cells, and then the cells were scraped off using a scraper. The cells were allowed to stand on ice for 20 minutes, and then centrifuged at 14000 rpm at 4° C. for 15 minutes, thereby collecting the supernatant. Concentration of the collected protein was measured, and then the protein equivalent to 50 μg was subjected to SDS-PAGE. After electrophoresis, the product was blotted on a PVDF membrane. When phosphorylated ERK, JNK, p38 and Akt were measured, blocking was carried out with 0.1% Tween 20 (TBS-T) containing 5% skim milk/Tris-buffered saline. As primary antibodies, an anti-phospho-p44/42 MAP kinase antibody, an anti-phospho-SAPK/JNK antibody, an anti-phospho-p38 MAP kinase antibody, and an anti-phospho-Akt ([…]) antibody were each used. As a secondary antibody, an HRP-labeled anti-rabbit IgG antibody was used. For the α-tubulin used as an internal standard, blocking was carried out with 5% bovine serum albumin (BSA)/TBS-T, and an anti-α-tubulin (Ab-1) antibody and an HRP-labeled anti-mouse IgG antibody were used as a primary antibody and a secondary antibody, respectively. For band detection, Renaissance™ Western Blot Chemiluminescence […] Reagent Plus (NEN) or Western Blotting Luminol Reagent (SANTA CRUZ BIOTECHNOLOGY) was used.
# After cell culture, MAP kinase activity and Akt activity were analyzed by Western blot in a manner similar to that used in (1), except that N-(3-oxododecanoyl)-L-homoserine lactones in final concentrations of 0 μM (0.25% DMSO), 1 μM, 10 μM, 30 μM and 100 μM were each added and each solution was allowed to react for 10 minutes (FIG. 8).
# After cell culture, N-(3-oxododecanoyl)-L-homoserine lactone with final concentrations of 30 μM and 100 μM were added. For each case, MAP kinase activity and Akt activity were measured by Western blot in a manner similar to that in (1), except for carrying out stimulation with acylated homoserine lactone in a short time course of 0, 5, 10, 30 and 60 minutes (FIG. 11), and in a long time course of 0, 10 minutes, 60 minutes, 2 hours, 4 hours, 6 hours, 8 hours and 10 hours (FIG. 12). In the case of stimulation at 30 μM, both ERK and p38 activities increased with a peak at 10 minutes. However, while ERK activity returned to the base level within 30 minutes, p38 activity lasted until 4 hours after stimulation. The inhibition of Akt activity in the case of stimulation at 30 μM peaked at 5 minutes and lasted until 60 minutes after stimulation, and returned to the base level within 2 hours. ERK activation took place with two steps in the case of stimulation at 100 μM. […]
# [1] = test system: PARP (poly-ADP ribose polymerase); assay: PARP activity by Western blot (cleaved PARP) in CaCo-2 cells; type: cell-based, human
# Protocol: The activities of caspase (caspase-3 and caspase-9) and PARP (poly-ADP ribose polymerase) were measured in a manner similar to those in Examples 1 and 2 by Western blot analysis using each of anti-activated (cleaved) caspase antibodies, that is, an anti-cleaved caspase-3 antibody, an anti-cleaved caspase-9 antibody (D330) and an anti-cleaved PARP antibody (D214).
# N-(3-oxododecanoyl)-L-homoserine lactones with final concentrations of 30 μM and 100 μM were each added to cultured CaCo-2 cells. Caspase-3, caspase-9 and PARP activities were analyzed over time by Western blot at 0 hours, 1 hour, 2 hours, 4 hours, 6 hours, 8 hours and 10 hours after culture. […] Whereas at 30 μM, activated caspase-3 began to be detected 1 hour after stimulation and the activity lasted until 4 hours after stimulation, at 100 μM the activity peaked at 6 hours and lasted until 10 hours after stimulation. Cleaved caspase-9 and cleaved PARP were detected by reprobing each membrane.
# Next, 3 hours of reaction with N-(3-oxododecanoyl)-L-homoserine lactone was carried out at concentrations of 0, 1, 10, 30, and 100 μM, and then caspase and PARP activities were measured.
smiles,measurement,setting,value
CCCCCCCCCC(=O)CC(=O)N[C@H]1CCOC1=O [N-(3-oxododecanoyl)-L-homoserine lactone],TNF-α production,TNF-α,promotes
same,cell morphology by Hoechst 33342 staining,CaCo-2 cells; 1 μM,only normal cells were observed
same,proportion of apoptotic cells to the total cell count,CaCo-2 cells; 10 μM,15%
same,proportion of apoptotic cells to the total cell count,CaCo-2 cells; 30 μM,39%
same,proportion of apoptotic cells to the total cell count,CaCo-2 cells; 100 μM,50%
same,concentration at which apoptotic cells exhibiting chromatin condensation were observed,CaCo-2 cells,≥ 10 µM
same,IL-8 production,IL-8,stimulates
same,p38 activity increase,"p38; 10 μM, 10 minutes",3.2 times
same,p38 activity increase,"p38; 30 μM, 10 minutes",4.4 times
same,activation of p38,"p38; 100 μM, 10 minutes",promoted
same,p38 activity increase,"p38; 100 μM, 10 minutes",5.4 times
same,concentration at which levels of phosphorylated p38 significantly increased,p38; 10 minutes,≥ 10 µM
same,p38 activity lasted until (after stimulation),p38; stimulation at 30 μM,4 h
same,time of peak p38 activity,p38; stimulation at 30 μM,10 min
same,p38 activity lasted until (after stimulation),p38; stimulation at 100 μM,8 h
same,time of peak p38 activation,p38; stimulation at 100 μM,5 min
same,cleaved PARP over time,[1]; 30 μM and 100 μM,behavior similar to that of cleaved caspase-9
same,concentration at which cleaved PARP was detected,"[1]; 3 hours of reaction, 0, 1, 10, 30 and 100 μM",≥ 30 µM
